Data as given in article PMC3508718 (Clinical pharmacokinetics, 2012).
Where two headings read alike, the source gives them in different places.

What was measured:
[1] = cited from earlier work
[2] = Model-predicted AUCτ in BP and CVF and CVF:BP AUC ratios; format: in vivo, HIV-infected pre-menopausal women
[3] = female, human, in vivo
[4] = Population pharmacokinetic co-modelling of blood plasma; details: female, human
[5] = non-compartmental analysis; ref [13]; cited from earlier work
wild-type HIV virus = details: cited from earlier work
[6] = female, human, in vivo, CVF AUCτ:BP AUCτ ratio
[7] = female, human, in vivo, CVF AUCτ:BP fAUCτ ratio
[8] = first dose, median (25th, 75th percentiles), model-predicted
[9] = multiple dose, median (25th, 75th percentiles), model-predicted

## C[C@H](Cn1cnc2c(N)ncnc21)OCP(=O)(O)O [Tenofovir, tenofovir]
[1]; ref [16]
  protein binding: < 7%
[2]; female, human, in vivo
  BP fAUCτ (unbound): 2.38 (1.59, 4.35) μg•h/L
[2]; female, human, in vivo, BP AUCτ
  AUC: 2.56 ng·h/mL
[2]; female, human, in vivo, CVF AUCτ
  AUC: 4.18 ng·h/mL
[2]; [6]
  Kp: 1.57
[2]; [7]
  Kp: 1.68
[3]
  ka,FD (first-order absorption rate constant, first dose): 1.72 (61.1) [99.8] h^−1
  ka,MD (first-order absorption rate constant, multiple dose): 1.05 (69.8) [30.0] h^−1
  kg12 (transfer rate constant from CVF compartment 1 to 2): 0.525 (203) [63.6] h^−1
  kg21 (transfer rate constant from CVF compartment 2 to 1): 0.323 (97.6) [60.7] h^−1
  tauFD (transit compartment transfer rate constant BP to CVF, first dose): 1.53 (106) [71.1] h^−1
  tauMD (transit compartment transfer rate constant BP to CVF, multiple dose): 1.24 (103) [130] h^−1

## O=C1Nc2ccc(Cl)cc2[C@@](C#CC2CC2)(C(F)(F)F)O1 [Efavirenz, efavirenz]
[4]; cervicovaginal fluid, oral
  Vd: 2.55 L
[5]
  penetration / exposure in CVF relative to BP (in words): very low penetration into CVF
[1]; used in the model to control drug transfer into CVF, ref [14]–[17]
  estimated fu (protein-unbound fraction in blood): 0.01
[2]; female, human, CVF, oral, CVF AUCτ, multiple dose, median (25th, 75th percentiles), model-predicted
  AUC: 0.262 ng·h/mL
[2]; female, human, cervicovaginal fluid, oral, CVF AUCτ, first dose, median (25th, 75th percentiles), model-predicted
  AUC: 0.0127 ng·h/mL
[2]; female, human, in vivo
  CVF AUCτ:BP fAUCτ ratio: 0.527 (0.298, 1.28)
[2]; [6]
  Kp: 0.00527
[2]; female, human, plasma, oral, BP AUCτ, first dose, median (25th, 75th percentiles), model-predicted
  AUC: 24.5 ng·h/mL
[2]; female, human, plasma, oral, BP AUCτ, multiple dose, median (25th, 75th percentiles), model-predicted
  AUC: 46.7 ng·h/mL
[2]; [8]
  BP fAUCτ (unbound): 0.245 (0.161, 0.303) μg•h/L
[2]; [9]
  BP fAUCτ (unbound): 0.470 (0.339, 1.06) μg•h/L
wild-type HIV virus; ref [36]
  IC50 (concentration producing 50 % inhibition of wild-type HIV virus): 0.51 ng/mL
[3]
  ka,FD (first-order absorption rate constant, first dose): 1.75 (52.7) [18.9] h^−1
  ka,MD (first-order absorption rate constant, multiple dose): 0.945 (139) [54.0] h^−1
  tauFD (transit compartment transfer rate constant BP to CVF, first dose): 0.866 (208) [77.5] h^−1
  tauMD (transit compartment transfer rate constant BP to CVF, multiple dose): 0.383 (156) [55.8] h^−1

## COC(=O)N[C@H](C(=O)N[C@@H](Cc1ccccc1)[C@@H](O)CN(Cc1ccc(-c2ccccn2)cc1)NC(=O)[C@@H](NC(=O)OC)C(C)(C)C)C(C)(C)C [Atazanavir, atazanavir]
[4]; in vivo
  Vd: 10.4 L
[5]
  penetration / exposure in CVF relative to BP (in words): moderately penetrative
[2]; female, human, in vivo, BP AUCτ, first dose, median (25th, 75th percentiles), model-predicted
  AUC: 25.3 ng·h/mL
[2]; female, human, in vivo, BP AUCτ, multiple dose, median (25th, 75th percentiles), model-predicted
  AUC: 54.6 ng·h/mL
[2]; female, human, in vivo, CVF AUCτ, first dose, median (25th, 75th percentiles), model-predicted
  AUC: 5.66 ng·h/mL
[2]; female, human, in vivo, CVF AUCτ, multiple dose, median (25th, 75th percentiles), model-predicted
  AUC: 5.53 ng·h/mL
[2]; [6]
  Kp: 0.299
[2]; [7]
  Kp: 2.14
[2]; [8]
  BP fAUCτ (unbound): 3.55 (0.867, 6.15) μg•h/L
[2]; [9]
  BP fAUCτ (unbound): 7.64 (1.61, 9.54) μg•h/L
wild-type HIV virus; ref [15]
  IC50 (concentration producing 50 % inhibition of wild-type HIV virus): 11 ng/mL
[3]
  ka,FD (first-order absorption rate constant, first dose): 0.879 (79.5) [29.0] h^−1
  tauFD (transit compartment transfer rate constant BP to CVF, first dose): 0.773 (145) [52.8] h^−1
  tauMD (transit compartment transfer rate constant BP to CVF, multiple dose): 1.41 (216) [85.2] h^−1

## Nc1ccn([C@@H]2CS[C@H](CO)O2)c(=O)n1 [Lamivudine, lamivudine]
[1]; ref [17]
  protein binding: 40%
[2]; female, human, in vivo, 150 mg
  CVF AUCτ: 10.0 (6.07, 48.9) μg•h/L
[2]; female, human, in vivo, 150 mg, BP AUCτ
  AUC: 3.86 ng·h/mL
[2]; female, human, in vivo, 300 mg, BP AUCτ
  AUC: 10.1 ng·h/mL
[2]; female, human, in vivo, 300 mg, CVF AUCτ
  AUC: 62.2 ng·h/mL
